The source of these data is BindingDB's records for doi:10.1021/np900246t (Griffith University, 2009).

The target in the experiment is MAP kinase-activated protein kinase 2 (Homo sapiens, UniProt P49137). The experiment in a line: Inhibition of GST-tagged MAPKAPK2 assessed as [33P] incorporation after 40 mins by scintillation proximity assay.

Each structure is given as a SMILES string.

Chain of MAP kinase-activated protein kinase 2 (P49137 whole entry): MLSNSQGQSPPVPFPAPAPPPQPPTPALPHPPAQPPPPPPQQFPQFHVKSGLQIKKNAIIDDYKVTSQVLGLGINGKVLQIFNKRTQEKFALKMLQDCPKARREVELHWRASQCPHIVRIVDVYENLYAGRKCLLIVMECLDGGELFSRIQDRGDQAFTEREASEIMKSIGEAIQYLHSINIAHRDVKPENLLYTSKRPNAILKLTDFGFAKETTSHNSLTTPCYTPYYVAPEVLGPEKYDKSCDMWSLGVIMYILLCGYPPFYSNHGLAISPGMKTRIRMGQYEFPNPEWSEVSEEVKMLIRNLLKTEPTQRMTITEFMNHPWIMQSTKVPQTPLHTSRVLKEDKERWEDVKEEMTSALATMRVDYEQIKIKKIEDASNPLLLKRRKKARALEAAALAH

As to `CC(C)=CCC/C(C)=C/C[C@]12C[C@@H](CC=C(C)C)C(C)(C)[C@](C/C=C(\C)CCC=C(C)C)(C(=O)C(C(=O)c3ccc(O)c(O)c3)C1=O)C2=O` (some centres not stated) [guttiferone O], the IC50 turned out to be 22 µM. `CC(C)=CCC/C(C)=C/C[C@]12C[C@@H](CC=C(C)C)[C@](C)(CCC=C(C)C)[C@](CC=C(C)C)(C(=O)C(C(=O)c3ccc(O)c(O)c3)C1=O)C2=O` (some centres not stated) [guttiferone P]: the IC50 turned out to be 22 µM.
